Legend:
[1] = system: IRF3 translocation induced by dsDNA (ISD); test: IRF3 translocation inhibition, confocal/immunofluorescence after ISD transfection; type: cell-based; conditions: Homo sapiens, % means blockage of IRF3 translocation induced by dsDNA (ISD)
Experimental: Inhibition of IFNβ expression was measured by Luciferase induction at 24 hours after transfection of ISD. […]. […] FIG. 3H qPCR of IFNβ 1 performed in MEFs treated same as in FIG. 3A. FIG. 3I qPCR of CCL5 performed in MEFs treated same as in FIG. 3A.
(§1) Immunofluorescence Microscopy: Cells were cultured and treated in their appropriate media on Lab-Tek II chamber slides. Cell were fixed with 4% paraformaldehyde for 15 minutes in at 37° C. and permeabilized with 0.05% Triton X-100 for 5 minutes at room temperature. Immunostaining was performed with rabbit-anti-STING polyclonal, rabbit-anti-IRF3 (Santa Cruz Biotechnology) or rabbit-anti-p65 (Cell Signaling) followed by fluorescence conjugated secondary antibodies (FITC-goat-anti-rabbit) (Invitrogen).

STING trafficking = test: Confocal analysis of STING trafficking in hTERT cells; type: cell-based, human; conditions: 6 hours after ISD transfection
Experimental: FIG. 1D are photographs showing confocal analysis for STING trafficking was performed at 6 hours after ISD transfection with/without W1, treatment same as FIG. 1A, according to an embodiment of the invention;
as §1

[2] = system: IFNβ expression and production; test: IFNβ expression and production in normal hTERT cells (qPCR, ELISA); type: cell-based, human; conditions: ISD transfection
Experimental: The ability of compound W1 administered onto normal hTERT cells to prevent cytosolic DNA from activating STING was assessed (FIGS. 1B-H). […] In addition, the level of STING phosphorylation (STING is phosphorylated following activation) and the subsequent phosphorylation of TBK1, the kinase of IRF3 was assessed. Phosphorylation of TBK1 and IRF3 are required for activation of the type I IFN promoter.
Interferon R Elisa analysis: Interferon R Elisa was performed using either the IFNβ human ELISA Kit from Invitrogen or the Human IFNβ ELISA Kit from PBL Interferon Source following the manufacturer's protocol.
(§2) Quantitative Real time PCR (qPCR) Total RNA were reverse-transcribed using M-MLV Reverse Transcriptase (Promega). Real-time PCR was performed using Taqman Gene Expression Assay (Applied Biosystems) for innate immune genes and inflammatory cytokines.

pIRF3, pSTING = test: Western blot of pIRF3, pSTING, pTBK1 after ISD transfection in hTERT cells; type: cell-based, human
Experimental: FIG. 1C are photographs showing Western blot analysis of STING, phospho-TBK1 (pTBK1) and phospho-IRF3 (pIRF3) performed at 6 hours after ISD transfection with/without W1 treatment same as FIG. 1A, Mock is shown (210), ISD treatment only (220) was used as a control, according to an embodiment of the invention;
Immunoblot analysis: Equal amounts of proteins were resolved on sodium dodecyl sulfate (SDS)-Polyacrylamide gels and then transferred to polyvinylidene fluoride (PVDF) membranes (Millipore). After blocking with 5% Blocking Reagent, membranes were incubated with various primary antibodies (and appropriate secondary antibodies). The image was resolved using an enhanced chemiluminescence system ECL (Thermo Scientific) and detected by autoradiography (Kodak). Antibodies: rabbit polyclonal antibody against STING was developed in our laboratory as described previously in Ishikawa et al, 2008; other antibodies were obtained from following sources: β-actin (Sigma Aldrich), p-IRF3 (Cell Signaling), IRF3 (Santa Cruz Biotechnology), p-p65 (Cell Signaling), p65 (Cell Signaling), p-TBK1 (Cell Signaling), TBK1 (Abcam), cGAS (Cell Signaling).

STING activation, Cxcl10 = test: STING activation in MEFs stimulated with ISD (qPCR of Cxcl10, Western blot, confocal); type: cell-based, mouse
Experimental: FIG. 1E are photographs showing Western blot analysis in murine fibroblasts (MEFs) treated the same as FIG. 1A, according to an embodiment of the invention;
FIG. 1F are photographs showing confocal analysis in MEFs treated the same as FIG. 1A, according to an embodiment of the invention;
MEFs were treated with W1 and then stimulated with cytoplasmic DNA (ISD) and examined Cxcl10 expression by qPCR and STING-dependent phosphorylation of TBK1 and IRF3.
Mouse embryonic fibroblasts (MEFs) were obtained from E13.5 embryos by a standard procedure. Bone Marrow Derived Macro-phages (BMDM) were isolated from hind-limb femurs of 8-10 weeks old WT and Trex1 KO (TKO) mice. The hematopoietic cells from the bone marrow were cultured in complete DMEM (Invitrogen) including 10 ng/ml of Mouse Recombinant Colony-Stimulating Factor (M-CSF, R&D Systems) for 10 to 14 days.
as §2

**Q.** Which results are given for Cc1cc([N+](=O)[O-])ccc1S(=O)(=O)Nc1nc2cc(C(F)(F)F)ccc2[nH]1 [Compound W1, 2-methyl-4-nitro-N-[5-(trifluoromethyl)-1H-1,3-benzodiazol-2-yl]benzene-1-sulfonamide]?
**A.** inhibition at 25 µM [1]: 40 to 50%; STING trafficking (STING trafficking): effectively preventing STING trafficking; IFNβ expression and production [2]: dramatically decreased; inhibition at 10 µM (pIRF3, pSTING; Homo sapiens): < 10%; STING phosphorylation and TBK1 and IRF3 phosphorylation (pIRF3, pSTING; hTERT cells, 6 hours after ISD transfection): robustly prevented; production of STING-inducible cytokine Cxcl10 in response to ISD (STING activation, Cxcl10): dramatically decreased

From patent US20240270737A1, “SMALL MOLECULAR INHIBITORS OF STING SIGNALING COMPOSITIONS AND METHODS OF USE” (STINGINN INC., priority 2021, published 2024)
